Measurements as given in the NIST ThermoML archive (doi:10.1016/j.fluid.2011.04.024).

Conditions: Liquid, Closed cell (Static) method

C=CCCCCCCCCCC [1-dodecene]
Conditions	vapor or sublimation pressure [kPa]
430.38 K	21.7
443.18 K	33.6
453.99 K	44
459.86 K	52.6
464.81 K	61.6
470.91 K	70.7
476.45 K	80.8
480.78 K	90.2
484.11 K	100.7

c1ccc2sccc2c1 [benzo[b]thiophene]
Conditions	vapor or sublimation pressure [kPa]
434.26 K	21.3
446.75 K	30.3
457.64 K	41.1
465.61 K	50.8
472.44 K	60.5
479.15 K	71.5
484.01 K	80.5
489.09 K	90.9
493.8 K	101.5

CCCCCCCCCCCC [dodecane]
Conditions	vapor or sublimation pressure [kPa]
432.23 K	20.9
444.86 K	31
455.87 K	42.7
462.05 K	50.8
469.67 K	62.3
474.19 K	70.2
479.82 K	81
484.34 K	90.8
488.5 K	100.6

CCCCCCCCO [octan-1-ol]
Conditions	vapor or sublimation pressure [kPa]
417.83 K	20.5
428.6 K	30.4
437.35 K	41.5
443.9 K	50.5
449.55 K	60.7
454.52 K	71
459.23 K	81
463.21 K	91.1
466.61 K	100.3
